Source: patent publication US20040071328A1, “Classifying cells based on information contained in cell images” (priority 2003, published 2004)

Test system: Cell Line A549 (human lung cancer epithelial cells)
Test: Cell cycle characterization of Taxol-treated A549 cells by image analysis of DAPI-stained DNA
Type: cell-based
Method: FIGS. 14A-14G depict the results of an experiment in which human lung cancer epithelial cells were treated with Taxol and the effect of Taxol on the cell cycle was characterized. The specific cells used in this study were from Cell Line A549 (human lung cancer epithelial cells) (ATCC:CCL-185). Two day staged cell cultures of the A549 cells were trypsinized for five minutes from T175 cm flasks. The cells were then suspended in ten milliliters of RPMI media with ten percent serum and counted using both a hemocytometer and Coulter Counter. The suspension was diluted further in media to ensure that there were 1600 cells per twenty microliters in suspension. The cells were then counted again. Thereafter, they were transferred to a Cell Stir and kept in suspension while being plated into barcoded 384 well plates using a MultiDrop at twenty microliters per well. The plates were transferred to a humidified carbon dioxide incubator to recover for twenty-four hours before the addition of Taxol or DMSO. Prior to imaging the cells were treated with DAPI to stain DNA. Cells from each well were then imaged.
Of relevance to this example, eight wells were treated with Taxol at varying concentrations and eight other “control” wells were treated with DMSO, which is not toxic to the cells under consideration. The concentration of Taxol varied from approximately 0.09 micromolar to 200 micromolar. […] Cells in each of the eight Taxol wells were separately imaged and the total measured intensity in each cell was recorded. As discussed above, the total intensity corresponds to the amount of DNA in each cell. In the histogram, the cell count has been normalized so that the area under each curve was equal to a value of one.
The data used to produce the histogram of FIG. 14B was taken from the same images of the eight Taxol containing wells used to produce the histogram of FIG. 14A. In this histogram, the mitotic discriminator is defined as log2(average intensity) minus log2(area).
The five phases are G1, S, G2, m (telophase), and M (prophase, metaphase, and anaphase). […]

With `CC(=O)O[C@H]1C(=O)[C@@]2(C)[C@H]([C@H](OC(=O)c3ccccc3)[C@]3(O)C[C@H](OC(=O)[C@H](O)[C@@H](NC(=O)c4ccccc4)c4ccccc4)C(C)=C1C3(C)C)[C@]1(OC(C)=O)CO[C@@H]1C[C@@H]2O` [Taxol] the “distribution of cells based upon the amount of DNA contained in each cell (log2 total intensity histogram; G1 vs G2 peaks)” value (Taxol approximately 0.09 micromolar to 200 micromolar, eight wells, DAPI stain, FIG. 14A) was “arrests cells in the G2 phase”, the “mitotic discriminator (log2(average intensity) minus log2(area)); relative incidence of mitotic vs interphase cells” value (Taxol approximately 0.09 to 200 micromolar, FIG. 14B) was “greatly increase the relative incidence of mitotic cells” and the “number of objects divided by the average number of DMSO objects ("o" curve; objects correspond to living cells)” value (Taxol approximately 0.09 to 200 micromolar, FIG. 14C) was “decreases with increasing concentration of Taxol”.
